According to ChEMBL document CHEMBL3507680, “University of Dundee, Gates Library screen for HepG2 cell viability”:

Assay: Human HepG2 cell viability assay in 384 well format
Assay type: toxicity, cell-based
Parameters: dose 125 nL, time 70.5 hour; cytotoxicity at 70.5 h: concentration not given beside the values
Settings: HepG2 cells, read-out: Inhibition

Row | SMILES | cytotoxicity at 70.5 h [%]
1 | Cn1cc(-c2nc(CN3CCOC(Cn4cccn4)C3)cs2)cn1 (stereo not drawn) | -5.18
2 | CNC(C)Cc1ccccc1Sc1ccc(O)cc1 (stereo not drawn) | -8.32
3 | CCn1c(CN2CCCC2)nnc1C1CCN(S(=O)(=O)CC)CC1 | -2.53
4 | N#Cc1cccc(CN2C[C@@H](NC(=O)C3CC3)[C@H]3OCCC[C@H]32)c1 | -12.1
5 | N#Cc1cccnc1Nc1ccc(N2CCC(C(N)=O)CC2)cc1 | 4.18
6 | O=C(NCC(O)(c1cccs1)C1CC1)NC1CCCCC1 (stereo not drawn) | 10.9
7 | O=C(Cc1cc2c(cc1Cl)OCCO2)N1CC[C@H](CO)[C@H](O)C1 | -5.99
8 | COCCS(=O)(=O)c1ncc(CN(C)C)n1Cc1ccccc1 | 4.62
9 | Cn1nc(C(=O)N2CCOCC2)cc1C(=O)Nc1c(Cl)cccc1Cl | -2.69
10 | CCn1ncc2c1C(COC)N(C(=O)c1cscn1)CC2 (stereo not drawn) | 6.98
11 | CC(CNC(=O)c1cc(Cl)ccc1I)N1CCCC1 (stereo not drawn) | -17.1
12 | Cc1cccc(CN2C(=O)CCC23CCN(C(=O)c2ccco2)CC3)n1 | 0.736
13 | Cc1cc(C(=O)N2CCCN(c3nccs3)CC2)c(C)n1C(C)C | 29.5
14 | CNC(=O)C1CN(Cc2c[nH]cn2)CCN(C2CCOCC2)C1 (stereo not drawn) | 14.9
15 | CCCN(CCc1ccccc1)c1ncnc2oc(C)nc12 | -2.57
16 | CCCS(=O)(=O)c1ccc(N2CCN(Cc3ccccc3)CC2)nn1 | -8.4
17 | Cc1ccc(CNC(=O)c2c[nH]nc2NC(=O)COCC2CC2)cc1 | -3.76
18 | O=C1CC[C@H]2[C@H](CCN2C(=O)C2CCCO2)N1CCN1CCCC1 (stereo partly drawn) | -21.6
19 | Cc1[nH]ncc1CCCNC(=O)Nc1ccc2c(c1)OC1(CCCC1)O2 | -2.92
20 | CCc1ccccc1NCc1nc2[nH]c(C)c(C)c(=O)n2n1 | 10.8
21 | O=C(C1CCOCC1)N1C[C@H]2CC[C@@H]1CN(Cc1ccncc1)C2 | -6.05
22 | COc1cc(N2C[C@@H]3COC[C@@H](Cc4nc(C)no4)[C@@H]3C2)ncn1 | -7.51
23 | COc1cccc(C(=O)NC(C)CCN2CCOCC2)c1F (stereo not drawn) | -5.81

Row | SMILES | cytotoxicity at 70.5 h [%]
24 | Cc1nnc2n1CCN(C(C(=O)NC1CC1)c1ccc(F)cc1)C2 (stereo not drawn) | -3.54
25 | CS(=O)(=O)Cc1nc(CN2CCC(C(F)(F)F)CC2)cs1 | -8.36
26 | N#Cc1cccc(N2CCCC3(CN(C(=O)NC4CC4)CCO3)C2)c1 (stereo not drawn) | -1.09
27 | COCCN(C)CC1CCCN1S(=O)(=O)Cc1ccccc1F (stereo not drawn) | 13.2
28 | CC1CCN(C(=O)[C@@H]2C[C@H]3OCC[C@H]3N(Cc3ccoc3)C2)CC1 | -2.6
29 | Cn1ccc2c(-c3nccc(N)n3)ccnc21 | 5.54
30 | COc1cccn(CC(=O)N(C)CCOc2cc(C)cc(C)c2)c1=O | 2.11
31 | Fc1cccc(-c2nnn3c2COCC(CNCc2nccs2)C3)c1 (stereo not drawn) | -11.8
32 | CC(=O)c1c[nH]c(C(=O)N2CCN(C(C(N)=O)c3ccccc3)CC2)c1 (stereo not drawn) | 47.9
33 | O=C(NS(=O)(=O)c1ccc(F)cc1)C1CCOc2ccccc21 (stereo not drawn) | -3.97
34 | CCc1nc(CCNc2ncccc2C#N)sc1C | -8.12
35 | Cc1cc(CN(Cc2ccccc2)C(C)CN2CCOCC2)no1 (stereo not drawn) | -5.58
36 | Cc1noc(C)c1CCC(=O)N1CCCCC1CNS(C)(=O)=O (stereo not drawn) | -7.67
37 | Cc1nc(CN2CCC23CCN(C(=O)c2ccncc2)CC3)cs1 | -9.81
38 | COc1cc(CCC(=O)NC(C)(C)C)ccc1OCC(F)(F)F | -9.72
39 | CC(=O)CCCC(=O)N(Cc1ccsc1)CC(C)C | -5.67
40 | O=C(O)[C@@H]1CN(C(=O)CCN2CCCCC2)C[C@H]1c1ccccc1 | -5.31
41 | CCNC(=O)N1CCC(n2ccc(C(F)(F)F)n2)CC1 | 38.9
42 | Cc1ccc(CN2CCC3(CC2)NC(=O)CC3c2ccccc2)s1 (stereo not drawn) | -6.55
43 | CN(C)C[C@@H]1CN(C2CCN(c3ccc(Cl)cc3)CC2)C[C@@H]1CO | -10.6
44 | CCNC(=O)C1CCCN(c2cccc(C(F)(F)F)n2)C1 (stereo not drawn) | 21.5
45 | CC(=O)N1CCO[C@H]2[C@H](OCCCn3cccn3)CC[C@@H]21 | -3.12
46 | Cc1cccc2[nH]c(C3CCN(C(=O)c4ccnn4C)CC3)nc12 | 0.0948

Row | SMILES | cytotoxicity at 70.5 h [%]
47 | Cc1cc(N2CCC(CO)(CC3CCCCO3)CC2)c2ccccc2n1 (stereo not drawn) | 2.86
48 | Cc1cc(CC(=O)NCC(O)COc2ccc(F)c(F)c2)no1 (stereo not drawn) | -12
49 | Cc1nc2c(c(N3CCCOCC3)n1)CCN(C(=O)N1CCCC1)CC2 | -4.22
50 | CN(C)S(=O)(=O)N1CCC(C(O)c2ccc(Cl)cc2)CC1 (stereo not drawn) | -10.4
51 | O=C(NCCc1csc(-c2cccnc2)n1)c1cnn2c1CCCC2 | -7.57
52 | N#Cc1cc2c(nc1SCc1cc(O)nc(O)n1)CCCC2 | -7.89
53 | Cc1c(NC(=O)CN(C)S(C)(=O)=O)cccc1OC1CCCC1 | -4
54 | COc1ccc(C)c2c1N(C(=O)c1cnc3onc(C)c3c1)CCC2 | 2.65
55 | CCCN1CCN(C(=O)c2cccnc2)CC1 | -14.6
56 | CC(C)C(=O)N1C[C@H]2CCCN[C@H]2C1 | -5.18
57 | CS(=O)(=O)CCCNC1(c2cccc(Cl)c2)CCCC1 | -5.23
58 | Fc1ccccc1-c1noc2c1CN(CC1CC1)CC2 | -3.89
59 | CC(=O)N1CCO[C@@H]2CN(S(=O)(=O)c3cccs3)CC[C@@H]2C1 | -9.77
60 | CC(=O)N1CCCN(C(=O)c2ccc(=O)n(C)c2)c2ccccc21 | -2.79
61 | CCc1ocnc1C(=O)N1CCOC(c2nc(C(C)C)n[nH]2)C1 (stereo not drawn) | -10.4
62 | Cc1noc(C)c1CSCc1nc(N)c2ccccc2n1 | 0.626
63 | O=C(CN1CCC(c2ccccc2)C1)NCC(F)(F)F (stereo not drawn) | 1.22
64 | CCOC(=O)NC(CNC(=O)c1ncccn1)CC(C)C (stereo not drawn) | -7.23
65 | NC(=O)CC1CCCCN1C(=O)Cc1cccc(Br)c1 (stereo not drawn) | -4.57
66 | O=C(O)Cc1cccc(-n2ccnc2-c2ccc(Cl)s2)c1 | -4.96
67 | Cc1nc(=O)c2ccccc2n1C1=CCN(CC(=O)NC(C)C)CC1 | -1.95
68 | CNc1nc(C(=O)N2C[C@H]3CC[C@@H]2CN(C2CCOCC2)C3)cs1 | -10.2
69 | COCCNC(=O)c1nn(-c2cccc(C(C)C)c2)cc1O | 41.1

Row | SMILES | cytotoxicity at 70.5 h [%]
70 | CCOC(=O)N1CCC(NCC2CCN(c3cnn(C)c(=O)c3)C2)CC1 (stereo not drawn) | -6.78
71 | COc1cccc(Nc2nc(C3CCNCC3)c3ccccn23)c1 | -2.27
72 | O=C1CC2(CCCC2)CC(=O)N1Cc1nccs1 | -1.44
73 | COc1ccc(Br)c(C(=O)NCC2CC2)c1 | 18.2
74 | CCCOc1cccc(C(=O)N2CCCC(n3cncn3)C2)c1 (stereo not drawn) | -13.7
75 | Cc1cnn(CC2CCCN2C(=O)c2ccc(Cl)cc2F)c1 (stereo not drawn) | -1.79
76 | CCCNCC1(O)CCCN(Cc2cccc(C)c2)C1=O (stereo not drawn) | -3.03
77 | O=C(CCc1ccc(Cl)s1)N1CCC(N2CCNC2=O)CC1 | -3.74
78 | C1CC(CN2C[C@H]3CC[C@@H]2CN(Cc2noc(C4CCCC4)n2)C3)C1 | 22.2
79 | O=C(NCc1cncc2c1CCN(Cc1cccc(F)c1)C2)C1CC1 | -1.35
80 | CCS(=O)(=O)N1CCC2(CC1)CC[C@@]1(C(=O)N(C)C)CN(C(C)=O)C[C@@H]21 | 13.5
81 | CCn1cnnc1C1CCN(C(=O)COCCc2ccccc2)CC1 | -3.71
82 | Nc1ncc(C(=O)N2CCC(O)(CO)CC2)c(-c2ccccc2)n1 | -15.6
83 | Cc1ncc(-c2ccncc2)c(C2CCN(C(=O)c3ccno3)CC2)n1 | -7.69
84 | O=C(Cc1ccon1)Nc1cncc(Br)c1O | -0.318
85 | CN1N=C(C(=O)N2CCN(c3ncccn3)CC2)CCC1=O | 1.03
86 | CCC1CN(C)c2ccccc2CN1C(=O)Nc1cccc(F)c1 (stereo not drawn) | -9.77
87 | CC(C)CNC(=O)c1sccc1-n1cnnn1 | -7.28
88 | CCn1c(CN(C)CC(F)(F)F)nc2c(F)cccc21 | -0.949
89 | CC(C(=O)N1CCCC1)N1CCC(c2nccn2Cc2cscn2)CC1 (stereo not drawn) | -9.41
90 | CNC(=O)C(C)(C)CNC(=O)Nc1cc(C)ccn1 | -7.88
91 | CC(c1ccco1)N(C)Cc1cc2cc3c(cc2[nH]c1=O)OCO3 (stereo not drawn) | -8.06
92 | Cc1cc(=O)n(C)cc1NC(=O)NCc1cccc(F)c1 | -2.73

Row | SMILES | cytotoxicity at 70.5 h [%]
93 | CC(=O)N1CC2(CCN(c3ccc4ccccc4n3)CC2)CC1C(=O)O (stereo not drawn) | 4.97
94 | O=C1CC(c2ccc(C(=O)O)cc2)c2c(sc3c2CCCC3)N1 (stereo not drawn) | -9.3
95 | CN1N=C(C(=O)NCCc2ccc(OC3CCCC3)cc2)CCC1=O | 1.04
96 | Cc1cccc(N2CCc3ncnc(C4CC4)c3CC2)n1 | -10.3
97 | Cc1ccc2nccc(C(=O)N3CCOC(CCN(C)C)C3)c2c1 (stereo not drawn) | 15.6
98 | CCc1noc(C2CCCCN2C(=O)c2ccc(C)o2)n1 (stereo not drawn) | 14
99 | CCCN(CCC)c1ncc(S(=O)(=O)c2cccc(C)c2)c(N)n1 | -20.1
100 | CCC(C)(NCC(=O)N(c1ccccc1)C(C)C)c1nc(C)cs1 (stereo not drawn) | 2.38
101 | O=C(Nc1ccc(-c2csnn2)cc1)N1CCN2CCCCC2C1 (stereo not drawn) | 5.22
102 | Cc1cnn(CC2CCCN2CC(=O)N(C)Cc2ccc(C)o2)c1 (stereo not drawn) | -7.64
103 | CC(=O)NCC(Cc1cccc(F)c1)n1cccc1 (stereo not drawn) | -5.86
104 | c1ccc(CN2CCC3(CC2)CCN(Cc2cccs2)C3)nc1 | 0.064
105 | O=C(NCCCC(=O)N1CCN(CC2CC2)c2ccccc21)C1CC1 | -7.6
106 | Cc1ncc(CN2CCC(c3nc(O)cc(-c4ccsc4)n3)CC2)cn1 | -3.5
107 | OCCN1CCN(Cc2coc(-c3cccc(F)c3)n2)CC1 | -7.98
108 | O=C(COCc1ccccc1)N1CCN(Cc2ccccc2F)C(=O)C1 | -9.08
109 | OC1(CNCc2noc(Cc3ccccc3)n2)CNCCOC1 (stereo not drawn) | -4.33
110 | CC[C@H]1CN(S(=O)(=O)c2ccccc2)CC[C@H]1CC(=O)O | 5.41
111 | CC(C)CNC(=O)N1CCOC2(CCNCC2)C1 | -3.81
112 | O=c1cc(CSc2nnc[nH]2)nc2sc3c(n12)CCCC3 | -10.9
113 | CC(C)N(C)C(=O)c1ccc(Cl)c(NC(=O)C2CCC2)c1 | 19.4
